Data as given in the CheMixHub drug solubility set.

Assay: xn = mol fraction of the nth substance listed, in the solute-free solvent

COC(=O)C1=C(C)NC(C)=C(C(=O)OCC(C)C)C1c1ccccc1[N+](=O)[O-] (stereo unspecified) + CC(C)O + O
solubility (g/100 g solution)
Details	278.15 K	283.15 K	288.15 K	293.15 K	298.15 K	303.15 K	308.15 K	313.15 K	318.15 K
x2 = 0.06974	0.651	0.819	1.02	1.25	1.49	1.76	2.04	2.35	2.71
x2 = 0.1666	1.78	2.22	2.67	3.18	3.8	4.49	5.28	6.22	7.31
x2 = 0.3103	2.4	2.84	3.46	4	4.73	5.54	6.37	7.36	8.44
x2 = 0.5454	3.18	3.82	4.5	5.27	6.2	7.21	8.34	9.68	11.1

O=[N+]([O-])c1cc[nH]n1 + CC(C)=O + O
solubility (g/100 g solution)
Details	283.15 K	288.15 K	293.15 K	298.15 K	303.15 K	308.15 K	313.15 K	318.15 K	323.15 K
x2 = 0.03333	0.251	0.321	0.373	0.471	0.552	0.72	0.876	1.07	1.32
x2 = 0.07199	0.297	0.351	0.41	0.49	0.576	0.71	0.865	1.05	1.29
x2 = 0.1174	0.313	0.362	0.422	0.501	0.594	0.708	0.855	1.05	1.29
x2 = 0.1714	0.322	0.371	0.43	0.507	0.597	0.705	0.853	1.05	1.24
x2 = 0.2368	0.324	0.369	0.426	0.491	0.573	0.683	0.813	0.984	1.17
x2 = 0.3176	0.319	0.37	0.422	0.487	0.564	0.662	0.79	0.932	1.11
x2 = 0.42	0.324	0.366	0.414	0.476	0.543	0.637	0.749	0.871	0.999
x2 = 0.5538	0.306	0.354	0.398	0.457	0.527	0.614	0.722	0.873	1.02
x2 = 0.7363	0.299	0.349	0.397	0.461	0.515	0.576	0.678	0.794	0.916

O=c1[nH]cc(F)c(=O)[nH]1 + O + C1CCOC1
solubility (g/100 g solution)
Details	283.15 K	288.15 K	293.15 K	298.15 K	303.15 K	308.15 K	313.15 K	318.15 K	323.15 K
x2 = 0.5001	0.119	0.145	0.171	0.198	0.236	0.281	0.337	0.424	0.513
x2 = 0.7273	0.219	0.264	0.307	0.36	0.423	0.498	0.61	0.721	0.868
x2 = 0.8572	0.382	0.44	0.504	0.585	0.675	0.811	0.97	1.08	1.3
x2 = 0.9412	0.615	0.702	0.795	0.91	1.05	1.22	1.45	1.74	1.93

O=C1NS(=O)(=O)c2ccccc21 + CC#N + CCO
solubility (g/100 g solution)
Details	x2 = 0.0999	x2 = 0.2002	x2 = 0.2997	x2 = 0.3998	x2 = 0.5002	x2 = 0.5999	x2 = 0.7001	x2 = 0.7999	x2 = 0.8999
293.15 K	5.33	7.27	8.67	9.52	9.7	9.58	8.96	7.58	5.52
298.15 K	5.91	7.97	9.45	10.3	10.7	10.6	9.85	8.34	6.08
303.15 K	6.8	9.11	10.7	11.7	12.1	11.9	11.1	9.45	6.93
308.15 K	7.49	9.96	11.7	12.7	13.5	13.2	12.3	10.5	7.63
313.15 K	8.72	11.5	13.3	14.4	14.8	14.6	13.6	11.7	8.61
318.15 K	10.1	13.2	15.3	16.5	16.8	16.7	15.4	13.3	9.87
323.15 K	11.4	14.7	16.9	18.1	18.5	18.2	17	14.6	10.9
